Among the data in PubChem BioAssay (NCI) are TGI and GI50 values, retold here.

Several values for one entry are separate records, joined by “and”; a condition that tells them apart may be missing. Equal values may be shown once.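 Dose response: 5 concentrations. Exposure: 48 h. Format: 96-well plates. Endpoint: linear interpolation; highest concentration if not reached. GI50 = concentration required for 50% inhibition of growth. TGI: total growth inhibition.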

Among the test systems are MDA-N; XF 498 CNS; M19-MEL melanoma; DMS 114 small cell lung; LXFL 529 NSCLC; DLD-1 colon; SNB-78 CNS; HOP-18 NSCLC; RXF-631 renal; P388 leukemia; P388/ADR leukemia; SN12K1 renal.
What all share (experiment): NCI tumour cell line growth inhibition, 48 h

`OC(COc1ccc(Cl)cc1Cl)CN1CCCC1` (stereo unspecified) yielded a TGI in the test with MDA-N of over 100 µM.

As for `CC1(C)CCc2cc3c(cc2O1)OC(C)(C)C1c2c(ccc4c2CCC(C)(C)O4)OC31` (stereo unspecified), the TGI with XF 498 CNS, in the test on M19-MEL melanoma, in the test with DMS 114 small cell lung, in the test on LXFL 529 NSCLC, in the test with DLD-1 colon and with SNB-78 CNS was over 100 µM throughout.

In the test on MDA-N, `O=C(CCCn1ccnc1[N+](=O)[O-])NCCn1cnc([N+](=O)[O-])c1` returned a TGI of over 100 µM.

Regarding `COc1ccc(S(=O)(=O)O)cc1NS(=O)(=O)c1ccc(C)cc1`, in the test on MDA-N, the TGI is over 100 µM.

In the case of `CCCNC(=O)c1cc2ccccc2cc1C(=O)OC`, the TGI in the test with HOP-18 NSCLC, in the test on XF 498 CNS, in the test on M19-MEL melanoma, in the test with DMS 114 small cell lung, in the test with LXFL 529 NSCLC and in the test with DLD-1 colon was over 100 µM in each case. Also, the TGI in the test with RXF-631 renal and in the test on SNB-78 CNS was over 100 µM in each case.

Regarding `CC1SC2=NC3=C(c4ccccc4C3=O)C(c3ccc(Br)cc3)N2C1=O` (stereo unspecified), the TGI in the test with XF 498 CNS, with M19-MEL melanoma, in the test with DMS 114 small cell lung, in the test on LXFL 529 NSCLC and with DLD-1 colon was over 100 µM each time.

On to `CC[C@](O)(C(=O)O)c1cc2n(c(=O)c1CO)Cc1cc3ccccc3nc1-2`, for which the TGI in the test on P388 leukemia is 0.294 µM; in the test on HOP-18 NSCLC, 4.88 µM; with XF 498 CNS, 4.41 µM and 0.793 µM; in the test on M19-MEL melanoma, 0.547 µM; in the test on DMS 114 small cell lung it was 1.11 µM and 0.412 µM; in the test on DLD-1 colon, 30 µM. The TGI was found to be 25.6 µM with P388/ADR leukemia, 1.04 µM with RXF-631 renal, 0.605 µM in the test on MDA-N and 2.73 µM with SN12K1 renal. Besides, the GI50 was 0.614 µM in the test on XF 498 CNS; 0.311 µM and 0.337 µM in the test on DLD-1 colon; 0.242 µM and 0.135 µM with SNB-78 CNS.

Take `N#Cc1cc2cc3c4c(c2oc1=O)CCCN4CCC3`: the TGI with MDA-N was over 100 µM.

As to `COc1cc(C2[C@H]3C(=O)N(c4ccc(Cc5ccc(N6C(=O)[C@@H]7ON(c8ccccc8)C(c8cc(OC)c(OC)c(OC)c8)[C@@H]7C6=O)cc5)cc4)C(=O)[C@H]3ON2c2ccccc2)cc(OC)c1OC` (stereo partly specified), the TGI with HOP-18 NSCLC, with M19-MEL melanoma, in the test on DMS 114 small cell lung, in the test with DLD-1 colon, in the test with RXF-631 renal and with SNB-78 CNS was over 100 µM in each case.

For the compound `CC(C)O/C=C1\C(=O)C2(SCCS2)[C@H]2CCCC[C@@H]12`, the TGI in the test on HOP-18 NSCLC, in the test with M19-MEL melanoma, in the test with LXFL 529 NSCLC, in the test with DLD-1 colon, in the test on RXF-631 renal and with SNB-78 CNS was over 100 µM in each case.

Regarding `O=C1Cc2ccccc2N1/N=C\c1ccc(O)cc1`, the TGI in the test with HOP-18 NSCLC, with XF 498 CNS, in the test with M19-MEL melanoma, in the test on DMS 114 small cell lung, in the test on RXF-631 renal and with SNB-78 CNS was over 100 µM each time.

In the case of `CSc1nc2c(nc(N)n2C2OCC(O)C(O)C2O)c(=O)[nH]1` (stereo unspecified), the TGI with HOP-18 NSCLC, in the test with XF 498 CNS, with M19-MEL melanoma, with DMS 114 small cell lung, in the test with LXFL 529 NSCLC and in the test with DLD-1 colon was over 100 µM in each case. For the same compound, the TGI with RXF-631 renal and with SNB-78 CNS was over 100 µM in each case.

Consider `CNC1=C(C)C(=O)C(C)=C(C(C)(C)CC(=O)n2cc(F)c(=O)[nH]c2=O)C1=O`, for which the TGI in the test with HOP-18 NSCLC, in the test with XF 498 CNS, in the test with M19-MEL melanoma, in the test with DMS 114 small cell lung, in the test on LXFL 529 NSCLC and with DLD-1 colon was over 100 µM in each case. Also, the TGI with RXF-631 renal and in the test on SNB-78 CNS was over 100 µM throughout.

On to `Cn1c(=O)c(C(c2ccccc2)c2c(O)c3ccccc3n(C)c2=O)c(O)c2ccccc21`, for which the TGI in the test on HOP-18 NSCLC, in the test with XF 498 CNS, in the test on M19-MEL melanoma, with DMS 114 small cell lung, with LXFL 529 NSCLC and with DLD-1 colon was over 100 µM throughout. The TGI in the test with RXF-631 renal and in the test with SNB-78 CNS was over 100 µM in each case.

Regarding `NNC(=O)CC(=O)Nc1ccccc1F`, the TGI with HOP-18 NSCLC, in the test with M19-MEL melanoma, in the test with DMS 114 small cell lung, with LXFL 529 NSCLC, with DLD-1 colon and in the test on RXF-631 renal was over 100 µM in each case. The TGI in the test on SNB-78 CNS was over 100 µM.

`COc1ccc(CNc2nc3ccccc3nc2-c2cccs2)cc1OC`: the TGI is over 100 µM in the test on HOP-18 NSCLC; 59.6 µM with XF 498 CNS; over 100 µM in the test on M19-MEL melanoma; over 100 µM in the test on LXFL 529 NSCLC; over 100 µM in the test on RXF-631 renal; over 100 µM in the test with SNB-78 CNS.

Take `CCN(CC)C(=O)c1c(N2CCOCC2)cc(N(CC)CC)oc1=O`: the TGI in the test on HOP-18 NSCLC, in the test on XF 498 CNS, with M19-MEL melanoma, in the test with DMS 114 small cell lung, with LXFL 529 NSCLC and in the test on DLD-1 colon was over 100 µM in each case. In the test on SNB-78 CNS, this compound displayed a TGI of over 100 µM.

Turning to `Cn1c2ccccc2c2cc(-c3ccccc3)c3c(c21)C(=O)C=CC3=O`, the TGI is 32.1 µM in the test with XF 498 CNS; 46.6 µM in the test with M19-MEL melanoma; 19.8 µM with DMS 114 small cell lung; 18.6 µM in the test on LXFL 529 NSCLC; 27.7 µM in the test on DLD-1 colon; over 100 µM in the test on RXF-631 renal. The TGI in the test on MDA-N is 41.8 µM; with SNB-78 CNS, over 64.8 µM.
